Legend:
[1] = system: Rattus norvegicus; assay: Antidiabetic activity against streptozotocin-induced diabetic Wistar rat assessed as […] in incorporation of [14C]leucine into per mg serum protein at 10 mg/day, ip measured after 3 days (RVb=640+/-50 cpm); format: functional
[2] = system: Rattus norvegicus; assay: Antidiabetic activity against streptozotocin-induced diabetic Wistar rat assessed as increase in incorporation of [14C]leucine into hepatic […] fraction at 10 mg/day, ip measured per mg protein after 6 days (RVb=357+/-14 cpm); format: functional
[3] = system: Rattus norvegicus; assay: Antidiabetic activity against streptozotocin-induced diabetic Wistar rat assessed as increase in incorporation of [14C]leucine into hepatic soluble fraction at 10 mg/day, ip measured per mg protein after 3 days (RVb=265+/-8 cpm); format: functional
[4] = system: Rattus norvegicus; assay: Antidiabetic activity against streptozotocin-induced diabetic Wistar rat assessed as increase in incorporation of [14C]leucine into hepatic homogenate at 10 mg/day, ip measured per mg protein after 3 days (RVb=401+/-16 cpm); format: functional
[5] = system: Rattus norvegicus; assay: Antidiabetic activity against streptozotocin-induced diabetic Wistar rat assessed as increase in incorporation of [14C]leucine in to hepatic nuclear fraction at 10 mg/day, ip measured per mg protein after 6 days (RVb=273+/-8 cpm); format: functional
[6] = system: Rattus norvegicus; assay: Antidiabetic activity against streptozotocin-induced diabetic Wistar rat assessed as decrease in serum glucose level at 10 mg/day, ip for 3 days measured after 3 days (RVb=396+/-18.7 mg/dl); format: functional
[7] = system: Rattus norvegicus; assay: Antidiabetic activity against streptozotocin-induced diabetic Wistar rat assessed as increase in incorporation of [14C]leucine into hepatic microsomal fraction at 10 mg/day, ip measured per mg protein after 3 days (RVb=555+/-33 cpm); format: functional, Liver
[8] = system: Rattus norvegicus; assay: Antidiabetic activity against streptozotocin-induced diabetic Wistar rat assessed as increase in serum protein level at 10 mg/day, ip for 3 days measured after 3 days by biuret method (RVb=5.06+/-0.18 g/dl); format: functional
[9] = system: Rattus norvegicus; assay: Antidiabetic activity against streptozotocin-induced diabetic Wistar rat assessed as increase in incorporation of [14C]leucine into hepatic soluble fraction at 10 mg/day, ip measured per mg protein after 6 days (RVb=227+/-8 cpm); format: functional
[10] = system: Rattus norvegicus; assay: Antidiabetic activity against streptozotocin-induced diabetic Wistar rat assessed as increase in serum albumin level at 10 mg/day, ip for 3 days measured after 6 days by BCG method (RVb=3.07+/-0.08 g/dl); format: functional
[11] = system: Rattus norvegicus; assay: Antidiabetic activity against streptozotocin-induced diabetic Wistar rat assessed as increase in serum albumin level at 10 mg/day, ip for 3 days measured after 3 days by BCG method (RVb=3.24+/-0.11 g/dl); format: functional
[12] = system: Rattus norvegicus; assay: Antidiabetic activity against streptozotocin-induced diabetic Wistar rat assessed as increase in incorporation of [14C]leucine in to hepatic nuclear fraction at 10 mg/day, ip measured per mg protein after 3 days (RVb=272+/-8 cpm); format: functional
[13] = system: Rattus norvegicus; assay: Antidiabetic activity against streptozotocin-induced diabetic Wistar rat assessed as increase in serum protein level at 10 mg/day, ip for 6 days by biuret method; format: functional
[14] = system: Rattus norvegicus; assay: Antidiabetic activity against streptozotocin-induced diabetic Wistar rat assessed as increase in incorporation of [14C]leucine into hepatic homogenate at 10 mg/day, ip measured per mg protein after 6 days (RVb=372+/-3 cpm); format: functional
[15] = system: Rattus norvegicus; assay: Antidiabetic activity against streptozotocin-induced diabetic Wistar rat assessed as increase in serum protein level at 10 mg/day, ip for 3 days measured after 6 days by biuret method (RVb=4.86+/-0.30 g/dl); format: functional
[16] = system: Rattus norvegicus; assay: Antidiabetic activity against streptozotocin-induced diabetic Wistar rat assessed as increase in incorporation of [14C]leucine in to hepatic […] fraction at 10 mg/day, ip measured per mg protein after 3 days (RVb=377+/-10 cpm); format: functional
[17] = system: Rattus norvegicus; assay: Antidiabetic activity against streptozotocin-induced diabetic Wistar rat assessed as increase in incorporation of [14C]leucine into hepatic microsomal fraction at 10 mg/day, ip measured per mg protein after 6 days (RVb=499+/-57 cpm); format: functional, Liver
[18] = system: Rattus norvegicus; assay: Antidiabetic activity against streptozotocin-induced diabetic Wistar rat assessed as decrease in serum glucose level at 10 mg/day, ip for 3 days measured after 6 days (RVb=401+/-10.7 mg/dl); format: functional
[19] = system: Rattus norvegicus; assay: Antidiabetic activity against streptozotocin-induced diabetic Wistar rat assessed as […] in incorporation of [14C]leucine into per mg of serum protein at 10 mg/day, ip measured after 6 days (RVb=612+/-40 cpm); format: functional

CC(C)=CCC[C@](C)(O[C@@H]1O[C@H](CO[C@@H]2OC[C@H](O)[C@H](O)[C@H]2O)[C@@H](O)[C@H](O)[C@H]1O)[C@H]1CC[C@]2(C)[C@@H]1[C@H](O)C[C@@H]1[C@@]3(C)CC[C@H](O[C@@H]4O[C@H](CO)[C@@H](O)[C@H](O)[C@H]4O[C@@H]4O[C@H](CO)[C@@H](O)[C@H](O)[C@H]4O)C(C)(C)[C@@H]3CC[C@]12C [GINSENOSIDE RB2]
Activity [1]: 921 cpm | Activity [2]: 395 cpm | Activity [3]: 287 cpm | Activity [4]: 481 cpm | Activity [5]: 314 cpm | Activity [6]: 337.2 mg/dL | Activity [7]: 689 cpm | Activity [8]: 5.11 g/dL | Activity [9]: 242 cpm | Activity [10]: 3.39 g/dL | Activity [11]: 3.24 g/dL | Activity [12]: 294 cpm | Activity [13]: 17% | Activity [14]: 424 cpm | Activity [15]: 5.68 g/dL | Activity [16]: 426 cpm | Activity [17]: 737 cpm | Activity [18]: 321 mg/dL | Activity [19]: 699 cpm
